Laboratory results reported in US12564636B2, “Pnictogen-containing heterocyclic compounds and their use” (University of Rhode Island Board of Trustees, priority 2022, dated 2026).

Assays:
Type in all cases: physicochemical
[1] = Second order reaction rate constant of CAP compound with cysteine (UV-Vis kinetics); conditions: similar reaction conditions (25° C., pH 7, 50 mM PIPES)
Description: (§1) In a typical experiment, an aliquot of the stock solution of CAP1-a in water was added to nucleophile in PIPES buffer or water. The progress of the reaction was monitored by UV-Vis spectrometer at suitable wavelength. The pseudo first order reaction rate constant was determined by plotting the ln value of the concentration of CAP1-a against the reaction time. The pseudo first order reaction rate constant thus obtained was plotted against the concentration of the nucleophile. The slope of this linear correlation is the second order reaction rate constant. CAP1-a was reacted separately with GSH, cysteine, N-acetylcysteine, and phenol.

[2] = Second order reaction rate constant of CAP compound with GSH (UV-Vis kinetics)
Description: as §1
Following the study above, compounds CAP1-F, CAP2, and CAP4 each were reacted with either GSH or phenol in water or 50 mM PIPES at pH 7.
In another study, compounds CAP1-b, CAP1-F, CAP2, CAP3, CAP4, and CAP5 each were reacted with either GSH in a 50 mM PIPES and 150 mM KCl aqueous solution at pH 7 and 25° C. […] The reaction between CAP5 and GSH has a k2 as high as 3.2×10^5 M^−1·S^−1, 7×10^9 folds faster than its reaction with water under the same conditions. […] S^−1.

[3] = Reaction of CAP compound with water (hydrolysis rate, stability in water)
Description: as §1
On the other hand, the reaction between CAP4 and water is very slow, showing a k2 of only 4.8−10^−6 M^−1·S^−1 at 25° C. and pH 7 in 50 mM PIPES.

[4] = Stability in D2O observed by 1H NMR; conditions: r.t.
Source text: 1H NMR (400 MHz, D2O) δ 8.08−7.98 (m, 2H), δ 7.92−7.85 (m, 2H), 4.41 (s, 6H), 3.75 (s, 3H).

[5] = 50 mM PIPES and 150 mM KCl aqueous solution, pH 7, 25° C.

SMILES	second order reaction rate constant (k2), reaction with GSH ([2]; 25° C., pH 7, 50 mM PIPES)	second order reaction rate constant (k2), reaction with GSH [2, 5]	also measured
C[n+]1ccccc1F.[I-] [CAP1-a, N-methyl-2-fluoropyridinium iodide]	1.2×10^2 M^−1·S^−1		second order reaction rate constant (k2), reaction with cysteine [1]: 2.8×10^2 M^−1·S^−1; second order reaction rate constant (k2), reaction with water ([3]; CAP1-a and water): 4.5×10^−6 M^−1 S^−1; stability in water (in words) ([3]; inferred from slow reaction with water): high stability
C[n+]1ccccc1F [CAP1-b, N-methyl-2-fluoropyridinium tetrafluoroborate]		1.2×10^2 M^−1·S^−1	
C[n+]1ccc(S(C)(=O)=O)cc1 [CAP3, N-Methyl-4-(methylsulfonyl)pyridinium tetrafluoroborate]		9.8×10^3 M^−1·S^−1	
C[n+]1ccccc1S(C)(=O)=O [CAP4, N-methyl-2-(methylsulfonyl)pyridinium tetrafluoroborate]	5.3×10^4 M^−1·S^−1	1.2×10^5 M^−1·S^−1	
C[n+]1c(Cl)cccc1S(C)(=O)=O [CAP5, 2-Chloro-1-methyl-6-(methylsulfonyl)pyridin-1-ium tetrafluoroborate]		3.2×10^5 M^−1·S^−1	
Cn1c(S(C)(=O)=O)[n+](C)c2ccccc21 [CAP23, 1,3-dimethyl-2-(methylsulfonyl)-1H-benzo[d]imidazol-3-ium tetrafluoroborate]			stability in D2O [4]: moderate stability; time after which the compound is completely hydrolyzed in D2O [4]: 12 h
